Assay results from patent US20240025899A1, “TRIHETEROCYCLIC DERIVATIVE, AND PHARMACEUTICAL COMPOSITION AND APPLICATION THEREOF” (SHANGHAI DE NOVO PHARMATECH CO., LTD., priority 2020, published 2024).
Where a name gives a salt, the structure may show the parent alone. Read-outs that look alike come from different tables or passages of the source.

Experiments:
ATR/ATRIP kinase = ATR/ATRIP kinase (Homo sapiens (Human), UniProt Q13535); assay: ATR enzyme assay (HTRF, phosphorylation of substrate protein P53); format: biochemical; details: substrate P53, TR-FRET
Experimental: In this experiment, the phosphorylation level of substrate protein P53 (Eurofins, 14-952) was detected by HTRF technology to measure the activity of ATR/ATRIP (Eurofins, 14-953) kinase. Reaction buffer (25 mM HEPES pH 8.0, 0.01% Brij-35, 1% Glycerol, 5 mM DTT, 1 mg/mL BSA), termination buffer (12.5 mM HEPES pH 8.0, 0.005% Brij-35, 0.5% Glycerol, 250 mM EDTA) and assay buffer (50 mM HEPES pH 7.0, 150 mM NaCl, 267 mM KF, 0.1% sodium cholate, 0.01% Tween 20) were prepared in advance. ATR/ATRIP was diluted with reaction buffer to a working solution of 2 ng/μL, and the substrate protein P53 was diluted with reaction buffer to a working solution of 80 nM, and 4 nM of ATP (Sigma, A2383) working solution (containing 40 mM MnCl2) was prepared with reaction buffer. The compound was 3-fold diluted with DMSO, then diluted with reaction buffer into a working solution, then added to a 384-well plate at 2.5 μL/well, and centrifuged at 1500 rpm for 40 s. Then 2.5 μL of ATR/ATRIP working solution, P53 working solution and ATP working solution were added into the 384-well plate, centrifuged at 1500 rpm for 40 s and reacted at room temperature for 30 minutes. After the reaction was completed, 5 μL of termination buffer was added to each well, and centrifuged at 1500 rpm for 40 s. Antibody working solution containing 0.083 μg/mL anti-phospho-p53 (Ser15)-K (CisBio, cat. 61P08KAE) and 5 μg/mL anti-GST-d2 (CisBio, cat. 61GSTDLA) was prepared with assay buffer and added to the 384-well plate at 5 μL/well, then centrifuged at 1500 rpm for 40 s and reacted overnight at room temperature. Microplate reader (Tecan, Infinite M1000 Pro) was used to detect TR-FRET, and the data were analyzed with Graphpad software, and the four-parameter equation was used to fit the curve and calculate the IC50 value of the inhibitor (Table 1).

CYP2C19 = CYP2C19 (Homo sapiens (Human), UniProt P33261); assay: Cytochrome oxidase P450 inhibition study, CYP2C19; format: in vitro ADME; details: human liver microsomes; read-out: IC50 2C19
Experimental: (§1) LC-MS/MS methods were used to evaluate the inhibitory effects of compounds on CYP2C19, 2D6 and 3A4 subtypes. In this method, the test compound was mixed with a solution of human liver microsomes containing CYP model substrates, and incubated together under the addition of NADPH, then the inhibitory IC50 of the compound on CYP2C19, 2D6 and 3A4 was calculated by measuring the amount of metabolites of the model substrate in the reaction solution. The specific experimental method is as follows:
(§2) Compounds to be tested were prepared as stock solutions at 10 mM concentration with DMSO and then diluted to 4 mM with acetonitrile solution. At the same time, the corresponding reference inhibitor solutions for CYP subtypes were prepared, for example, the reference inhibitor was Ketoconazole, then these two compounds were prepared separately ([…] of inhibitor DMSO stock solution+[…] of acetonitrile), and the samples prepared under the above conditions were at 400× concentration. Then, the above solution was 3-fold diluted with DMSO/acetonitrile mixture (v/v: 40/60) to prepare the final test solution, and seven concentration points were set for each test compound, and the initial test final concentration was 10 μM. […]
(§3) […] of human liver microsome solution (0.2 mg/mL) was added to each well containing the test compound in the 96-well plate, and then 2 mL of the final test sample of test compounds prepared by serial dilution as described above was added thereto; for each well corresponding to the reference inhibitors, […] of human liver microsome solution (0.2 mg/mL) and 1 mL of the final test sample were added. […] The inhibition rate was determined by comparing the amount of model substrate metabolites at each test concentration without test substance addition, in the GraphPad Prism 5.0 software, the logarithm of the test concentration was used as the abscissa and the inhibition rate was used as the ordinate to perform a linear regression (Sigmoidal (non-linear) dose-response model) analysis to obtain the IC50 value of the test compound.

CYP2D6 = CYP2D6 (Homo sapiens (Human), UniProt P10635); assay: Cytochrome oxidase P450 inhibition study, CYP2D6; format: in vitro ADME; details: human liver microsomes; read-out: IC50 2D6
Experimental: as §1, §2, §3

CYP3A4 = CYP3A4 (Homo sapiens (Human), UniProt P08684); assay: Cytochrome oxidase P450 inhibition study, CYP3A4; format: in vitro ADME; details: human liver microsomes
Experimental: as §1
Compounds to be tested were prepared as stock solutions at 10 mM concentration with DMSO and then diluted to 4 mM with acetonitrile solution. At the same time, the corresponding reference inhibitor solutions for CYP subtypes were prepared, for example, the reference inhibitor was Ketoconazole, then these two compounds were prepared separately ([…] of inhibitor DMSO stock solution+[…] of acetonitrile), and the samples prepared under the above conditions were at 400× concentration. Then, the above solution was 3-fold diluted with DMSO/acetonitrile mixture (v/v: 40/60) to prepare the final test solution, and seven concentration points were set for each test compound, and the initial test final concentration was 10 μM. NADPH, CYP enzyme model substrate and human liver microsome solution were diluted to appropriate concentrations with pre-warmed potassium phosphate buffer (0.1 M, pH 7.4), respectively. The human liver microsome solution was purchased from BD Gentest (20 mg/mL, Corning, article number #452161).
[…] of human liver microsome solution (0.2 mg/mL) was added to each well containing the test compound in the 96-well plate, and then 2 mL of the final test sample of test compounds prepared by serial dilution as described above was added thereto; for each well corresponding to the reference inhibitors, […] of human liver microsome solution (0.2 mg/mL) and 1 mL of the final test sample were added. […] of the prepared corresponding model substrate was dispensed into a 96-well plate, and the microsome solution was mixed evenly, then 30 mL of the test compound/reference inhibitor-human liver microsome mixture was taken and transferred to the 96-well plate containing the substrate, and the mixture was mixed well and preheated at 37° C. for 5 minutes, then […] of 8 mM NADPH solution preheated at 37° C. was added thereto to start the reaction. A duplicate well control and a blank control without the addition of test substances were set at the same time. The 96-well plate containing a total volume of […] of reaction solution was incubated at 37° C. After the incubation, 120 μL of cold acetonitrile solution containing internal standard was added to each well to terminate the reaction, and then the 96-well plate was shaked on a microplate shaker for 5 minutes (600 rpm/min), and put into a centrifuge and centrifuged for 20 minutes at 6000 rpm, 4° C. Then 40 μL of supernatant from each well was transferred to another 96-well plate, and 80 μL of ultrapure water was added to each well, put into a shaker and mixed for 5 minutes (600 rpm/min), and centrifuged at 6000 rpm, 4° C., for 20 minutes. Then LC-MS/MS detection was performed. The inhibition rate was determined by comparing the amount of model substrate metabolites at each test concentration without test substance addition, in the GraphPad Prism 5.0 software, the logarithm of the test concentration was used as the abscissa and the inhibition rate was used as the ordinate to perform a linear regression (Sigmoidal (non-linear) dose-response model) analysis to obtain the IC50 value of the test compound.

hERG channel = hERG channel (Homo sapiens (Human), UniProt Q12809); assay: Cardiac safety evaluation, hERG study (QPatch whole-cell recording); format: cell-based; details: CHO cell line expressing hERG channel
Experimental: In this experiment, a CHO cell line stably transfected with hERG cDNA and expressing p15 hERG channel was used. Cells were incubated at 37° C. in a humidified incubator containing 5% CO2 in medium (Ham's F12, 10% v/v FBS, 100 μg/mL hygromycin B, 100 μg/mL geneticin) (from Invitrogen). Cells were grown under the above conditions and reached approximately 80-90% of the confluency. Cells were treated with Detachin (Genlantis) for 3 to 5 minutes. The medium was titrated 15 to 20 times at 37° C., and then the cells were resuspended in CHO-S-SFM II medium (serum-free medium, Invitrogen) buffered with HEPES (25 mM). Cells used for QPatch studies must meet the following criteria: Most suspension cells should be single and isolated under microscopy; viability should be greater than 95%; cell density in the final suspension should be in the range of 3 to 8×10^6 cells/mL before application to the QPatch stir chamber. Cells meeting the above conditions can be used for recordings within 4 hours of harvest.
Test compounds were made into 10 mM DMSO stock solutions. Six doses (30, 10, 3, 1, 0.3 and 0.1 μM) were selected to obtain the fitted curves and IC50. The final DMSO concentration was 0.1% or less. The IC50 of the positive control cisapride was assessed at doses of 3, 1, 0.3, 0.1, 0.03 and 0.01 μM, respectively. Composition of […] for electrophysiological recordings: CaCl2 2 mM, MgCl2 1 mM, KCl 4 mM, NaCl 145 mM, Glucose 10 mM, HEPES 10 mM, pH 7.4 (NaOH), composition of external solution: CaCl2 […], MgCl2 1.75 mM, KCl 120 mM, HEPES 10 mM, EGTA 5 mM, Na-ATP 4 mM, pH 7.25 (KOH) (all reagents used were from sigma).
Whole-cell recordings were performed using automated QPatch (Sophion Biosciences, Denmark). Cells were recorded for 120 s to assess current stability. The above voltages were then applied to the cells every 15 s throughout the procedure. […]
The data were analyzed with Sophion Assay software (determination software V5.0), Microsoft Excel and Graphpad Prism 5.0 to obtain IC50 of compounds.

CYP3A4, sequence (P08684 whole entry): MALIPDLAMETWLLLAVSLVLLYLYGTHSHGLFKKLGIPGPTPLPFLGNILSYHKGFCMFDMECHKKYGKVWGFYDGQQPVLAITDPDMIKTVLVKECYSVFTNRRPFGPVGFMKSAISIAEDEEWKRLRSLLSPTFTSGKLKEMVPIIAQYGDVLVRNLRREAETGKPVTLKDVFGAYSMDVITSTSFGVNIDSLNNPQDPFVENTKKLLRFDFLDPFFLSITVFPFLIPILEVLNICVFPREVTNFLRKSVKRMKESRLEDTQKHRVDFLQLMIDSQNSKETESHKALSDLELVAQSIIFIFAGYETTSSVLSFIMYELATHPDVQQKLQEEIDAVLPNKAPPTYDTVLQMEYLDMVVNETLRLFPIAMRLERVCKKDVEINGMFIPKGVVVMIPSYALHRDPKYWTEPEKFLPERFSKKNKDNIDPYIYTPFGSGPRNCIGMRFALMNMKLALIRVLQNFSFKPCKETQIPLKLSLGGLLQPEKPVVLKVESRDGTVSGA
ATR/ATRIP kinase, sequence (Q13535 whole entry): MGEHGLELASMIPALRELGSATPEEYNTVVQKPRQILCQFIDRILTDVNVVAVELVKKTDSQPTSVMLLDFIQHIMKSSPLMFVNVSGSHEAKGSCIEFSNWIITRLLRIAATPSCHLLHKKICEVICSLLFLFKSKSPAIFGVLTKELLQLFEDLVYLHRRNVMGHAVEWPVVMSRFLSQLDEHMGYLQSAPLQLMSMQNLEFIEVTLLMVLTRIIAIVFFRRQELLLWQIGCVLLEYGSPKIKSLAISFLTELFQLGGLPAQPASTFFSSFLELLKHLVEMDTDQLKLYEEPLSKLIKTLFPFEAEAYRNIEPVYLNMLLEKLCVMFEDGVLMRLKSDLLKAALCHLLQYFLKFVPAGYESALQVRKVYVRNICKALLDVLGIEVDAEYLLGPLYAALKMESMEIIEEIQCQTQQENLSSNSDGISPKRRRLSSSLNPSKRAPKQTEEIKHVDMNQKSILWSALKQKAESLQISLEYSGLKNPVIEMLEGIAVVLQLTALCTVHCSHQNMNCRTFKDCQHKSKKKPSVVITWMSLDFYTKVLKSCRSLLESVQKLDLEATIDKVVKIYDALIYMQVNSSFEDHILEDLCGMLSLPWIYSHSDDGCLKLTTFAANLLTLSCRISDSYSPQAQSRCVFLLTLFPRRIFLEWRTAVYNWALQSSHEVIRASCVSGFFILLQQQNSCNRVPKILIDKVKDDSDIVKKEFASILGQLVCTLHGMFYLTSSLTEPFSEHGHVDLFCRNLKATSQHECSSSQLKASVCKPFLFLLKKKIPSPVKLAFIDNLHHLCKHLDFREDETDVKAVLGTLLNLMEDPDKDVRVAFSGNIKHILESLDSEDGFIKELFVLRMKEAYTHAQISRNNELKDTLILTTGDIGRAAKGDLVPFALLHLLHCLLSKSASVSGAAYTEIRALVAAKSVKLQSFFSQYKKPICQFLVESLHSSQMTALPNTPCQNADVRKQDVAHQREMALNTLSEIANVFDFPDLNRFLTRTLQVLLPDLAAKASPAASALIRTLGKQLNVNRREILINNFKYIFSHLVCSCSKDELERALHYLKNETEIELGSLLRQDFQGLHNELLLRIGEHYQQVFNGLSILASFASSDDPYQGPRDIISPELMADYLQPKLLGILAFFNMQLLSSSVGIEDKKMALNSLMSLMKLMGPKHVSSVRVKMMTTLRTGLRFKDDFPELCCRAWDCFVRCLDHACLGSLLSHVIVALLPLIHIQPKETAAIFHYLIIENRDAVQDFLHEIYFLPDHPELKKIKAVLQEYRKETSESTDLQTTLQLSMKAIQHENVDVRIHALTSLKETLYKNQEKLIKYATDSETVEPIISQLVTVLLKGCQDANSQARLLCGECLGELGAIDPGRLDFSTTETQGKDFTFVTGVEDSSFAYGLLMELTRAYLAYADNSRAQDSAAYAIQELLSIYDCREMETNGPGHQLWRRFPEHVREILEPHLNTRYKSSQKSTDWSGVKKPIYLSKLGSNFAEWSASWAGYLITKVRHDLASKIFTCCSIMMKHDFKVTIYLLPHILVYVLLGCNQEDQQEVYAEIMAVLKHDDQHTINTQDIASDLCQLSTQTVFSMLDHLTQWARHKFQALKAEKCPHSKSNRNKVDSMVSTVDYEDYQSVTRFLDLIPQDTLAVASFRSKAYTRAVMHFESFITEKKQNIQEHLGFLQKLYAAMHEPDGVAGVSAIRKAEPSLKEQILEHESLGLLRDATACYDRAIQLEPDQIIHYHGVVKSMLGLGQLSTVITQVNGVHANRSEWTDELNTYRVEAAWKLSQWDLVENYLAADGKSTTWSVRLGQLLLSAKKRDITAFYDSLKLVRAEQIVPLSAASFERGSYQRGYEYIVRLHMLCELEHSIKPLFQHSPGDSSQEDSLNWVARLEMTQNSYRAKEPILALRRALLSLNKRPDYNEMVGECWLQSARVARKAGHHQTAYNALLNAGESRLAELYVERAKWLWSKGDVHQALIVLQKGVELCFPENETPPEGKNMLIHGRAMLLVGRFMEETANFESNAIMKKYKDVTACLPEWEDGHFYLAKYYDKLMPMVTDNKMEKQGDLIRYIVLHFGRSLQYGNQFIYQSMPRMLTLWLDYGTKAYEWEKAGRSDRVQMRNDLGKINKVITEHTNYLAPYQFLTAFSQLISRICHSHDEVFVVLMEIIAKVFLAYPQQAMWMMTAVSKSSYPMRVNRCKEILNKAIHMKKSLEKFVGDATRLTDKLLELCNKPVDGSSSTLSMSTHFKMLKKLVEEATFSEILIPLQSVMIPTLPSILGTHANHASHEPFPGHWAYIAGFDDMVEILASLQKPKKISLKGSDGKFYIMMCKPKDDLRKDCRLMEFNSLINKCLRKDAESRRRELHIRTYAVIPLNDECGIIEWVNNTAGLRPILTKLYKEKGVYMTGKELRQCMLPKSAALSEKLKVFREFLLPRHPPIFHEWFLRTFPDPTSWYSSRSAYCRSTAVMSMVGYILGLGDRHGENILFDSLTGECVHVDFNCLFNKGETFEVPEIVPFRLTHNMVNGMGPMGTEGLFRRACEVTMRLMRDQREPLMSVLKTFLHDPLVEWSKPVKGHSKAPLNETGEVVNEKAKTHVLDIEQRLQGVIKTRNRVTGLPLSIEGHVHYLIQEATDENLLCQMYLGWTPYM
ATR/ATRIP kinase, sequence (Q8WXE1 whole entry partner): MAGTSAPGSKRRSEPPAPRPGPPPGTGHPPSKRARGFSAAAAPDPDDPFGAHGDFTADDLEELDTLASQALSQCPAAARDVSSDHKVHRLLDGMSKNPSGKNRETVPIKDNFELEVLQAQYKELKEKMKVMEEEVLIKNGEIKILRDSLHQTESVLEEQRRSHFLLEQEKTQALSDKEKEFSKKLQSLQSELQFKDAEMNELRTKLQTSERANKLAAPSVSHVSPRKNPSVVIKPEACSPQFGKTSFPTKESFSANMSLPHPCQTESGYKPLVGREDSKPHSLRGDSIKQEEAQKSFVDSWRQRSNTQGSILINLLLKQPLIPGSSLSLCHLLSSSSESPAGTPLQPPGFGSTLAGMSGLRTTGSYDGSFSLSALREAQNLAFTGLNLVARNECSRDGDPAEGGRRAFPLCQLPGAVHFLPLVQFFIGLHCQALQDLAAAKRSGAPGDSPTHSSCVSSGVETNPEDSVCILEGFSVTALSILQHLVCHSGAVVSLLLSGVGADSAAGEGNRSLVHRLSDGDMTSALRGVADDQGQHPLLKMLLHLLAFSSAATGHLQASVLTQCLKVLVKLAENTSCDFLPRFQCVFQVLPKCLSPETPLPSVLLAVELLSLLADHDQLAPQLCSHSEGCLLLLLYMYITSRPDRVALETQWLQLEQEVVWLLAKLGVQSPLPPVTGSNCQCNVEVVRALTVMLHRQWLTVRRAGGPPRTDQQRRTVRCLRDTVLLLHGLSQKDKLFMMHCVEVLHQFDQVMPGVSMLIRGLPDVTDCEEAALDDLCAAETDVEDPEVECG
CYP2C19, sequence (P33261 whole entry): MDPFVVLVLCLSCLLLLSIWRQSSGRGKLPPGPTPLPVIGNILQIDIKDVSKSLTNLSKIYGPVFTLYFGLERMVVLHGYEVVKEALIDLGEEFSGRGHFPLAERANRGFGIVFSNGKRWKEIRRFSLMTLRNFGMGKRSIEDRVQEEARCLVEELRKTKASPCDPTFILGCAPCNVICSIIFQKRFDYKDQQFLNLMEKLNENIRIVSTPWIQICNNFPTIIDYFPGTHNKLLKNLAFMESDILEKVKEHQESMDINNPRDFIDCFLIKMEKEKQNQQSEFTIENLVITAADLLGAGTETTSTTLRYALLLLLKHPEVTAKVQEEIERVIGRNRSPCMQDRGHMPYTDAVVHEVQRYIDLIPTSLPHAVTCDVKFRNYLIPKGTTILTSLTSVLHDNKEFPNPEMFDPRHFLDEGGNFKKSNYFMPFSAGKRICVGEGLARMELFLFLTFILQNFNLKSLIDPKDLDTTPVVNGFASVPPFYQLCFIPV
CYP2D6, sequence (P10635 whole entry): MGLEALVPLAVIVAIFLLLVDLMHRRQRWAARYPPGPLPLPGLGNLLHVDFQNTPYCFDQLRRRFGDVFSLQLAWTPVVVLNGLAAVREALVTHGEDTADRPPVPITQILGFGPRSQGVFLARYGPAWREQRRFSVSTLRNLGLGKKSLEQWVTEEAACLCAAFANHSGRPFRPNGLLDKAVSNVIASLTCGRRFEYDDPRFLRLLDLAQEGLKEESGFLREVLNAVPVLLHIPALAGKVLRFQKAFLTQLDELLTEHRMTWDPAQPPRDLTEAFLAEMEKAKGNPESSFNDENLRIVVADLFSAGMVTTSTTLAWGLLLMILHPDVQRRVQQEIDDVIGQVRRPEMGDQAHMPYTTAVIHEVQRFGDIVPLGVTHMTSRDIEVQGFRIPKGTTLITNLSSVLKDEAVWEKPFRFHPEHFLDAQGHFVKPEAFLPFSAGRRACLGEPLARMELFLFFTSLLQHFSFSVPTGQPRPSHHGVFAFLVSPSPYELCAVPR

C[C@@H]1COCCN1c1nc2c(cnn2-c2cc[nH]n2)c2c1ccn2S(=O)(=O)N(C)C [Compound 3, (R)—N,N-dimethyl-4-(3-methylmorpholino)-6-(1H-pyrazol-3-yl)pyrazolo[3,4-b]pyrrolo[2,3-d]pyridine-1(6H)-sulfonamide trifluoroacetate]
IC50 (ATR/ATRIP kinase): 0.00051 µM
IC50 (CYP2C19): > 10 µM
IC50 (CYP2D6): > 10 µM
IC50 (CYP3A4; substrate Midazolam, read-out: IC50 3A4 (Midazolam)): > 10 µM
IC50 (CYP3A4; substrate Testosterone, read-out: IC50 3A4 (Testosterone)): > 10 µM
IC50 (hERG channel): > 30 µM
